In assay [1] the test system is pp59Lyn and Gce1 interaction with caveolin-1 in rat adipocytes. In words: dissociation of signaling proteins from caveolin (caveolin-1 immunoprecipitates of hcDIGs). The assay is classed as cell-based. The following applies: 50 μM. The procedure: Solubilized DIGs (see above, 5-20 μg protein) were precleared by incubation with protein A/G-Sepharose and subsequent centrifugation (10,000×g, 5 min). The supernatant was incubated with anti-caveolin-1 antibodies (1:1000) preadsorbed on protein A/G-Sepharose in 1 ml of 10 mM Tris/HCl (pH 7.4), 150 mM NaCl, 1% TX-100 for 1 h at 4° C. The immune complexes were washed twice with the same buffer and then twice with buffer lacking TX-100 and finally subjected to SDS-PAGE performed in the absence of β-mercaptoethanol. The recovery of immunoprecipitated caveolin was normalized by homologous immunoblotting with anti-caveolin antibodies of the same blot following stripping of the membrane.
Polypeptides separated by SDS-PAGE were transferred to polyvinylidene difluoride membranes using the semidry procedure as described in “Müller, G. et al., (2001) Mol. Cell. Biol. 21: 4553-4567”. Washed membranes were incubated with anti-caveolin-1 (1:2000), anti-pp59^Lyn (1:1250), anti-aP (1:500), anti-5′-Nuc (1:750) and anti-IRS-1 (1:2000) antibodies for 4 h at 15° C. Washed membranes were incubated with horseradish peroxidase-coupled secondary goat anti-mouse (1:2000) or goat anti-rabbit IgG (1:4000) antibodies. Labeled proteins were visualized by enhanced chemiluminescence.
FIG. 6: Effect of GPI-2350 on the glimepiride/insulin-induced dissociation of signaling proteins from caveolin. Isolated rat adipocytes were treated (5 min, 37° C.) without or with GPI-2350 (left panels, 50 μM; right panels, increasing conc.) and then incubated (120 min, 37° C.) in the absence or presence of insulin (10 nM) or glimepiride (20 μM). hcDIGs were prepared from the adipocytes and then solubilized. Caveolin-1 immunoprecipitates prepared from the solubilized hcDIGs were assayed for the presence of pp59^Lyn and Gce1 by immunoblotting and photoaffinity-labeling, respectively. […]

The test system of another assay is isolated rat adipocytes. The assay can be described thus: glucose transport assay (2-deoxy-D-[3H]glucose). It is filed as cell-based. The following applies: 50 μM. The procedure:
Glucose transport was determined as described in “Müller, G. et al., (1994) J. Cell Biol. 126: 1267-1276” by incubation of 10,000-20,000 washed adipocytes with 2-deoxy-D[2,6-^3H]glucose at 50 μM final conc. (0.33 μCi/ml) in 50-μl portions for 20 min at 37° C. in the absence or presence of 20 μM cytochalasin B.
Table 3: Isolated rat adipocytes were incubated in the presence of methyl-β-cyclodextrin (m-β-CD, 10 mM, 50 min), CBDP (300 μM, electroporation, followed by washing and subsequent incubation for 30 min), PIG41 (10 μM, 15 min), sodium orthovanadate (1 mM, 15 min), trypsin (10 μg/ml, 15 min followed by treatment with 0.5 M NaCl and subsequent washing) and N-ethylmaleimide (1 mM, 5 min followed by addition of DTT). After addition of GPI-2350 (50 μM final conc.) to one half of the adipocyte suspension and further incubation (60 min, 37° C.), portions of the cells were assayed for 5′-Nuc activity in the isolated IcDIGs. The increase in 5′-Nuc during the basal incubation was set at 100 arb. units. Other portions of the cells (after 15 min incubation) were assayed for glucose transport which was set at 100 arb. units for the basal incubation. Means+SD of at least 3 independent cell incubations with activity measurements in triplicate each are given.
FIG. 8: Effect of GPI-2350 on the glimepiride/insulin-induced metabolic activity. Isolated rat adipocytes were treated (5 min, 37° C.) without or with GPI-2350 (Panel A, 50 μM; Panel B, increasing conc.; Panel C, 5 μM, 50 μM) and then incubated (15 min, 37° C.) in the absence or presence of insulin (Ins, 10 nM) or glimepiride (Gli, 20 μM or increasing conc.) as indicated. The adipocytes were then assayed for glucose transport and isoproterenol-induced lipolysis. The activity is given relative to the absence of GPI-2350 in the control reaction (Panels A, basal) or in the insulin- and glimepiride-stimulated state (Panels B and C, set at 100). Means+SD of at least 5 independent cell incubations with activity measurements in triplicate each are given.

“Also recorded” adds a separate entry of the source.

For the molecule `CCCCCCCCCCCCP1(=O)O[C@@H]2[C@H](O)[C@@H](O)[C@H](O)[C@@H](O)[C@@H]2O1` (some centres unmarked) [GPI-2350, myo-inositol-1,2-cyclo-dodecylphosphonic acid], the “effect on insulin-/glimepiride-induced dissociation of pp59Lyn and Gce1 from caveolin” value in assay [1] was “completely abrogated; also recorded: almost complete blockade”. In addition, the “effect on stimulation of glucose transport in response to glimepiride” value in the assay on isolated rat adipocytes was “almost complete blockade”.

These data come from patent US8017350B2, “Glimepiride- and insulin-induced glycosylphosphatidylinositol-specific phospholipase C regulation” (Sanofi-Aventis Deutschland GmbH, priority 2004, dated 2011).
